Results as given in PubChem BioAssay AID1508591.

Details: rat; liver microsomes; pH 7.4; 15.0 min; 1.0 µM

| Structure (SMILES) | half-life [min] |
| --- | --- |
| Cc1ccc(NS(=O)(=O)c2ccc3c(c2)NC(=O)CO3)cc1C | 3.13 |
| CC1(C)CNc2cc(NC(=O)c3cccnc3NCc3ccncc3)ccc21 | 15.2 |
| O=S(=O)(Nc1cnc2ccccc2c1)c1ccc(NCc2ccc(Br)cc2O)cc1 | 18 |
| NC(=O)Nc1cc(-c2ccc(CN3CCOCC3)cc2)sc1C(N)=O | > 30 |
| O=C(Cc1c[nH]c2ncc(-c3ccc(Cl)cc3)cc12)NCc1cccnc1 | 1.66 |
| CC(C)Oc1cccc(-c2ccnc(N3CCC(C(N)=O)CC3)n2)c1 | 11.6 |
| COc1ccc2c(c1)CN(C(=O)CCN1CCC(Cc3ccccc3)CC1)CCS2 | 2.27 |
| Cc1ccc(S(=O)(=O)Nc2cnccc2C(=O)Nc2nc(-c3ccc(F)cc3)cs2)cc1 | > 30 |
| Cn1cnc(S(=O)(=O)Nc2cnccc2C(=O)Nc2nc(-c3ccccc3)cs2)c1 | > 30 |
| COc1c(C)c2c(c(O)c1C/C=C(\C)CCC(=O)OCCN1CCOCC1)C(=O)OC2 | 1 |
| CN(C(=O)OC(C)(C)C)[C@@H](Cc1ccc(O[S+](=O)([O-])c2cccc3cnccc23)cc1)C(=O)N1CCN(C(=O)OCc2ccccc2)CC1 | 1.74 |
| CC(C=CC(=O)NO)=C[C@@H](C)C(=O)c1ccc(N(C)C)cc1 | 4.06 |
| CCOc1ccc(CCNC(=O)c2cc3ncccc3n2Cc2cccc(C)n2)cc1OCC | 6.7 |
| CN(Cc1ccccc1)C(=O)C1CCN(Cc2cccc3ccccc23)CC1 | 2.4 |
| O=C1CCCC2=C1C1(CCSC1)N=C(Nc1nc3ccccc3o1)N2 (stereo not drawn) | 2.5 |
| Fc1ccc(Nc2nc(-c3ccncc3F)nc3ccccc23)cc1F | 20 |
| OC1(c2ccc(Cl)cc2)CCN(Cc2c[nH]c3ccccc23)CC1 | 3.89 |
| CCOc1ccc(CN2C(=O)c3ccccc3Sc3ccc(C(=O)NC4CCC(C)CC4)cc32)cc1 (stereo not drawn) | 3.52 |
| Cc1ccc(O)c(-c2cc(-c3ccccc3C)[nH]n2)c1 | 24.4 |
| Cn1nnnc1Sc1ncnc2sc(-c3ccccc3)cc12 | 12.3 |
| O=C(Nc1cccc(Cc2ccccc2)n1)c1ccc(-c2cccc([N+](=O)[O-])c2)o1 | 1.7 |
| O=C(Nc1ccc(Cl)cc1)C(NS(=O)(=O)c1cccs1)c1ccccc1 (stereo not drawn) | 5.38 |
| Nc1ncc(S(=O)(=O)N2CCN(c3ccccc3)CC2)cn1 | 1.3 |
| COc1cc2nccc(Oc3ccc(NC(=O)Nc4cc(C)on4)c(Cl)c3)c2cc1OC | > 30 |
| C[C@]12CC[C@@H]3[C@H](CCC4=CC(=O)CC[C@]43C)[C@]1(O)CC[C@@]2(O)C(=O)CO | 20.9 |
| Fc1ccccc1Nc1nc(-c2ccncc2)nc2ccccc12 | 7.9 |

| Structure (SMILES) | half-life [min] |
| --- | --- |
| Cc1ccc(S(=O)(=O)Nc2cnccc2C(=O)Nc2nc(-c3ccc(Cl)cc3)cs2)cc1 | > 30 |
| CC1CCC(NC(=O)c2ccc3c(c2)N(Cc2ccccc2F)C(=O)c2ccccc2S3)CC1 (stereo not drawn) | 2.12 |
| NC(=O)C1CCN(c2nc(-c3ccc4ccccc4c3)cs2)CC1 | 2.62 |
| Cc1nn(CC(=O)NCCCN2CCC(N3CCCCC3)CC2)c(=O)c2cc(-c3ccccc3)nn12 | 13 |
| COc1ccc(-n2nc(C3CCN([S+](=O)([O-])c4cccc(C(F)(F)F)c4)CC3)[nH]c2=O)cc1 | 15 |
| COc1ccc(-c2ccc3nc(-c4cc(F)ccc4F)oc3c2)c(OC)c1OC | > 30 |
| CCc1ccccc1C(=O)N1CCc2cc(-c3nc(NC(=O)Cc4ccc5c(c4)OCO5)sc3C)ccc21 | 7.2 |
| CNC1CCC(N(Cc2ccc(OC)c(-c3ccc(C#N)cc3)c2)C(=O)c2sc3ccccc3c2Cl)CC1 (stereo not drawn) | > 30 |
| CCCN1CNc2c(c(=O)[nH]c(=S)n2Cc2ccc(OC)c(OC)c2)C1 | > 30 |
| CCOc1ccc(CCNC(=O)c2cc3ccccc3o2)cc1OCC | 1.6 |
| NC(=O)NCC(=O)N[C@H]1CC[C@H](Nc2nccc(-c3ccncc3)n2)C1 | > 30 |
| COc1ccccc1-n1cnc2cc(C(=O)N3CCCCC3)ccc21 | 3.2 |
| O=C(Nc1nnc(-c2ccco2)o1)c1ccc(Cl)cc1 | 10.8 |
| CCCCCCCc1c(C)nc(N2CCOCC2)[nH]c1=O | 3.5 |
| COC(=O)c1ccnc(-c2cc(C(=O)Nc3ccc(C4(N)CC4)cc3)ccn2)c1 | > 30 |
| Cc1ccc(-c2ccnc(N3CCC(C(N)=O)CC3)n2)cc1 | 2.35 |
| Cc1ccc(NC(=O)N2CCN(c3nc(N)nc4sc(-c5cccnc5)nc34)CC2)cc1 | 17.1 |
| Cc1ccc(-n2nc3c(=O)n(CCCC(=O)NC(C)c4ccccc4)nc(C)c3c2C)cc1 (stereo not drawn) | 2.27 |
| c1ccc(-c2csc3ncnc(Sc4nnn(-c5ccccc5)n4)c23)cc1 | 1.5 |
| CC#CC(=O)N1CCC[C@H]1c1nc(-c2ccc(C(=O)Nc3ccccn3)cc2)c2c(N)nccn12 | 19.4 |
| COc1ccc(Nc2nc(-c3cccc(OC)c3)no2)cc1 | 20.3 |
| O=C(N/N=C/c1ccc(Sc2ccccn2)o1)c1ccncc1 | > 30 |
| CCCCOc1ccc(C(=O)N2CCC(c3n[nH]c(=O)n3-c3ccc(C)cc3)CC2)cc1 | 5.43 |
| CCCCN1CCC[C@H]1CNC(=O)c1cc(C#N)c2ccccc2c1OC | 4.23 |
| Oc1ccccc1CN1CCNc2cc(Nc3ccccc3)ncc2C1 | 1.79 |
| Cc1cn2nc(-c3nc(C4CCCN(C(=O)c5ccccc5)C4)no3)cc2c(=O)[nH]1 (stereo not drawn) | 13.6 |

| Structure (SMILES) | half-life [min] |
| --- | --- |
| Cc1ccc(-c2cc(C(=O)Nc3ccc(S(=O)(=O)N(C)Cc4nccs4)cc3)c3ccccc3n2)cc1C | 4.1 |
| COc1cc(C(=O)NC2CCCc3c2[nH]c2ccccc32)cc(OC)c1OC (stereo not drawn) | 11.8 |
| Cc1cc(N=Nc2ccc(S(=O)(=O)Nc3ccccn3)cc2)c(N)cc1O | > 30 |
| CN(C)C(=O)NC1CCC(CCN2CCN(c3cccc(Cl)c3Cl)CC2)CC1 (stereo not drawn) | > 30 |
| Cc1cc(C)cc(NS(=O)(=O)c2ccc3[nH]cc(C(=O)NCc4ccco4)c(=O)c3c2)c1 | 1.84 |
| Cc1cc(C)nc(NC(=S)N2CCN(c3ccc(C(F)(F)F)cc3Cl)CC2)c1 | > 30 |
| Cc1cccc(-n2c(C)cc(C=C(C#N)C#N)c2C)c1 | 1.64 |
| COc1ccc(C2CC(=O)Nc3nc(N)sc32)cc1OC (stereo not drawn) | > 30 |
| Cc1ccc(S(=O)(=O)Nc2ccccc2C(=O)Nc2cccc(-c3ccccc3)c2)cc1 | 3.5 |
| CCC1=Nc2cc(C(=O)NC3CCCC3)ccc2Sc2ccc(Cl)cc21 | 1.61 |
| CC(=O)c1c(C)c2cnc(Nc3ccc(N4CCNCC4)cn3)nc2n(C2CCCC2)c1=O | > 30 |
| COc1ccccc1-c1[nH]nc2ncc(-c3ccc(C)cc3)nc12 | 3 |
| O=C(Nc1cccc(OC(F)(F)F)c1)c1cc(-c2ccc[nH]2)n[nH]1 | 20.9 |
| Cc1noc(/C=C/c2ccccc2F)c1S(=O)(=O)N1CCC(C(=O)Nc2ccc(C#N)cc2)CC1 | 24.7 |
| COc1cc(Cl)ccc1C(=O)Nc1nc(-c2ccccc2)cs1 | 14 |
| CCOC(=O)c1ccc(NC2CCCCC2)c(N)c1 | 2.5 |
| CC(=O)N1CCC2(CCCN(c3ccc(-c4ccccc4)cc3)C2)CC1 | 16 |
| CCC(C)N(C)C(=O)c1cc2ccccc2c(-c2ccccc2Cl)n1 (stereo not drawn) | 3.84 |
| COc1ccc(CNC(=O)c2cnc3ccccc3n2)cc1 | 9.3 |
| COc1cccc(C(=O)Nc2ccc3oc(-c4ccc5ccccc5c4)nc3c2)c1 | 27.9 |
| O=C(NC(c1ccccc1)c1cc(Cl)c2cccnc2c1O)c1cccnc1 (stereo not drawn) | 18.6 |
| COc1ccc(C(=O)c2sc(Nc3cccc(Cl)c3)nc2N)cc1 | 5.07 |
| CN(C)c1ccc2cc(C(=O)N[C@@H](CCCN=C(N)CCl)C(=O)NCc3ccccc3)ccc2c1 | 5.3 |
| O=C(NCc1ccc(N2CCCC2)nc1)c1cc(Cl)ccc1O | 1.9 |
| O=C1CCCC2=C1C(c1[nH]ncc1Cl)N=C(Nc1nc3c(Cl)cccc3o1)N2 (stereo not drawn) | 3.4 |
| NC(=O)C1CCN(c2cc(-c3ccc4c(c3)OCCCO4)ncn2)CC1 | > 30 |

| Structure (SMILES) | half-life [min] |
| --- | --- |
| COc1ccc(-c2[nH]nc3ncc(-c4ccc(CO)cc4)nc23)cc1F | 11.3 |
| O=C(Cc1ccc(O)cc1)N1CC(CNc2ccccc2)C2(C1)CN(c1ccccc1)C2 (stereo not drawn) | 9.42 |
| COc1cc(Nc2nc(-c3ccncc3)nc3ccccc23)ccc1F | 7.35 |
| Cc1nn(Cc2ccc(Cl)cc2)c(C)c1NC(=O)c1cc(-c2ccc3c(c2)OCO3)on1 | 6.4 |
| CCOc1ccc(-c2cn3c(n2)sc2cc(C(=O)NCCCN(CC)CC)ccc23)cc1 | > 30 |
| Fc1cnc(-c2ccccc2C(F)F)nc1NCC1CCN(c2cnccn2)CC1 | 3.4 |
| CCOc1ccccc1C(=O)Nc1ccncc1C(=O)Nc1cccc(S(=O)(=O)C(F)(F)F)c1 | > 30 |
| COc1ccccc1C(=O)Nc1nnc(SCc2cc(=O)c3ccccc3[nH]2)s1 | 7.49 |
| CC(C)c1nc2oc3c(NCCN(C)C)ncnc3c2c2c1COC(C)(C)C2 | > 30 |
| Cc1ccc(S(=O)(=O)Nc2ccc(OC(F)(F)F)cc2C(=O)Nc2nc(-c3ccccc3)cs2)cc1 | 24 |
| Cc1ccc2nc(NC3=NC(c4[nH]ncc4Cl)C4=C(CCCC4=O)N3)oc2c1 (stereo not drawn) | 15.8 |
| CCCOc1ccc2nc(NC(=O)OC)[nH]c2c1 | > 30 |
| O=c1[nH]c(C2CCCN(CC3CCCCC3)C2)nn1-c1ccc(Cl)cc1 (stereo not drawn) | > 30 |
| O=C(c1nc(-c2cccnc2)c2ccccn12)N1CCN(c2ncccn2)CC1 | 8.43 |
| O=C1Nc2ccc(I)cc2C1=Cc1cc(Br)c(O)c(Br)c1 | > 30 |
| Cc1nc(Nc2n[nH]c3c2CN(C(=O)N[C@H](CN(C)C)c2ccccc2)C3(C)C)c2sccc2n1 | 21.9 |
| COc1cccc(CNc2ccc(S(=O)(=O)Nc3cnc4ccccc4c3)cc2)c1O | 13 |
| O=S(=O)(Nc1ccccc1N1CCCCC1)c1ccc(Cl)s1 | 2.02 |
| Cc1ccc(-c2cc(C(=O)Nc3ccc(S(C)(=O)=O)cc3)c3ccccc3n2)cc1C | > 30 |
| O=C(Nc1ncc(Cc2ccc(C(F)(F)F)cc2)s1)c1ccc(-c2ccc([N+](=O)[O-])cc2)o1 | > 30 |
| O=C(Nc1ccc([N+](=O)[O-])cc1Cl)c1cc(Cl)ccc1O | > 30 |
| O=C(CCc1ccccc1)NC(c1cccs1)c1cc(Cl)c2cccnc2c1O (stereo not drawn) | 2.14 |
| CC(=O)OC[C@]12CCC(C)=C[C@H]1O[C@@H]1[C@H](O)[C@@H](OC(C)=O)[C@@]2(C)[C@]12CO2 | > 30 |
| N#CC1(c2ccc(NC(=O)c3cccnc3NCc3ccncc3)cc2)CCCC1 | 9.14 |
| COc1ccc(NS(=O)(=O)c2ccc(C)cc2)cc1C(=O)Nc1nc(-c2ccccc2)cs1 | 12 |
